Experimental findings from US10834950B2, “Organic compounds” (GIVAUDAN SA, priority 2013, dated 2020) are described below.

A short description of test [1]: Umami base flavour (aqueous NaCl, MSG, ribonucleotides) tasting by panel.
Test [2] is described as follows: Milk drink (semi skim milk) tasting by panel. The following applies: 5 ppm added to semi skim milk drink.
A short description of test [3]: Diluted soy sauce tasting by panel. The following applies: 5 ppm added to diluted soy sauce.
Test [4] in a line: Beef bouillon tasting by a panel of experienced tasters. Particulars: 40 ppb added to beef bouillon. As for the experimental part: A beef bouillon was prepared using bouillon cubes obtained from a local supermarket.
The mark [5] stands for this setting: 5 ppm added to umami base flavour.

`CCCCCCCCCCCC(=O)NC(Cc1c[nH]c2ccccc12)C(=O)O` (stereo not drawn) [2-(dodecanoylamino)-3-(1H-indol-3-yl)propanoic acid]: in test [1] (20 ppm added to umami base flavour), the “taste of umami base compared to the reference (panel)” value is given as “more fatty mouthfeel than the reference”. On to `CCCCCCCCCCCCCC(=O)NC(Cc1c[nH]c2ccccc12)C(=O)O` (stereo not drawn) [3-(1H-indol-3-yl)-2-tetradecanamidopropanoic acid], for which the “taste of milk drink compared to the reference (panel)” value in test [2] is “very creamy aftertaste, and a nice and slightly dryness at the front compared to the reference”. Also, the “taste of umami base compared to the reference (panel)” value in test [1] (setting [5]) is “more umami than the reference”. In addition, the “taste of soy sauce compared to the reference (panel)” value in test [3] is “more mouthfeel, and fuller compared to the reference”. With `CCCCCC/C=C\CCCC(=O)NC(Cc1c[nH]c2ccccc12)C(=O)O` (stereo not drawn) [(Z)-2-(dodec-5-enamido)-3-(1H-indol-3-yl)propanoic acid], the “taste of milk drink compared to the reference (panel)” value in test [2] is on record as “slightly increased creamy than the reference”. Besides, the “taste of umami base compared to the reference (panel)” value in test [1] (setting [5]) is “more umami than the reference”.

In the case of `CCCCCC/C=C\CCCC(=O)NC(Cc1ccccc1)C(=O)O` (stereo not drawn) [Example 1, (Z)-2-(Dodec-5-enamido)-3-phenylpropanoic acid], in test [4], the “taste of bouillon compared to the reference (panel)” value was “more umami, slightly more sweet, and the overall flavor profile lasts longer than the reference”. Regarding `CCCCCC/C=C\CCCC(=O)NC(Cc1ccc(O)cc1)C(=O)O` (stereo not drawn) [Example 2, (Z)-2-(Dodec-5-enamido)-3-(4-hydroxyphenyl)propanoic acid], the “taste of bouillon compared to the reference (panel)” value in test [4] is “slightly more umami, slightly more bitter and sweeter than the reference”. As for `CCCCCCCCCCCC(=O)NC(Cc1ccccc1)C(=O)O` (stereo not drawn) [Example 3, 2-(Dodecanoylamino)-3-phenylpropanoic acid], the “taste of umami base compared to the reference (panel)” value in test [1] (50 ppm added to umami base flavour) is “more umami, and thicker, possessed a lot of mouthfeel and a nice body, and provided a cleaner taste than the reference”.
